Data as given in the supplement of paper PMC11451515.

Test system: SEM cells
Assay: cell viability relative to DMSO control; higher = less cytotoxic
Settings: 48 h
Procedure, shortened: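 NOMO1 or SEM (500 cells/well) or P12-Ichikawa (1000 cells/well) leukemia cells were adapted for at least four passages in each medium. They were seeded in 1536-well plates (5 μl) and pin-dosed with library compounds in DMSO over an 11-point threefold series, 47 μM to 0.79 nM. CellTiter-Glo One luminescence was read after 48 h at 37°C. Viability is the per-plate percentage relative to DMSO wells, with cell-free wells as background.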

[1] = HPLM + 10% dialyzed FBS, 0.000781 µM
[2] = HPLM + 10% dialyzed FBS, 0.00234 µM
[3] = HPLM + 10% dialyzed FBS, 0.00702 µM
[4] = HPLM + 10% dialyzed FBS, 0.0211 µM
[5] = HPLM + 10% dialyzed FBS, 0.0632 µM
[6] = HPLM + 10% dialyzed FBS, 0.19 µM
[7] = HPLM + 10% dialyzed FBS, 0.569 µM
[8] = HPLM + 10% dialyzed FBS, 1.71 µM
[9] = HPLM + 10% dialyzed FBS, 5.12 µM
[10] = HPLM + 10% dialyzed FBS, 15.4 µM
[11] = HPLM + 10% dialyzed FBS, 46.1 µM
[12] = RPMI 5 mM glucose + 10% FBS, 0.000781 µM
[13] = RPMI 5 mM glucose + 10% FBS, 0.00234 µM
[14] = RPMI 5 mM glucose + 10% FBS, 0.00702 µM
[15] = RPMI 5 mM glucose + 10% FBS, 0.0211 µM
[16] = RPMI 5 mM glucose + 10% FBS, 0.0632 µM
[17] = RPMI 5 mM glucose + 10% FBS, 0.19 µM
[18] = RPMI 5 mM glucose + 10% FBS, 0.569 µM
[19] = RPMI 5 mM glucose + 10% FBS, 1.71 µM
[20] = RPMI 5 mM glucose + 10% FBS, 5.12 µM
[21] = RPMI 5 mM glucose + 10% FBS, 15.4 µM
[22] = RPMI 5 mM glucose + 10% FBS, 46.1 µM
[23] = RPMI 5 mM glucose + 10% dialyzed FBS, 0.000781 µM
[24] = RPMI 5 mM glucose + 10% dialyzed FBS, 0.00234 µM
[25] = RPMI 5 mM glucose + 10% dialyzed FBS, 0.00702 µM
[26] = RPMI 5 mM glucose + 10% dialyzed FBS, 0.0211 µM
[27] = RPMI 5 mM glucose + 10% dialyzed FBS, 0.0632 µM
[28] = RPMI 5 mM glucose + 10% dialyzed FBS, 0.19 µM
[29] = RPMI 5 mM glucose + 10% dialyzed FBS, 0.569 µM
[30] = RPMI 5 mM glucose + 10% dialyzed FBS, 1.71 µM
[31] = RPMI 5 mM glucose + 10% dialyzed FBS, 5.12 µM
[32] = RPMI 5 mM glucose + 10% dialyzed FBS, 15.4 µM
[33] = RPMI 5 mM glucose + 10% dialyzed FBS, 46.1 µM

SMILES	cell viability [1] [%]	cell viability [2] [%]	cell viability [3] [%]	cell viability [4] [%]	cell viability [5] [%]	cell viability [6] [%]	cell viability [7] [%]	cell viability [8] [%]	cell viability [9] [%]	cell viability [10] [%]	cell viability [11] [%]	cell viability [12] [%]	cell viability [13] [%]	cell viability [14] [%]	cell viability [15] [%]	cell viability [16] [%]	cell viability [17] [%]	cell viability [18] [%]	cell viability [19] [%]	cell viability [20] [%]	cell viability [21] [%]	cell viability [22] [%]	cell viability [23] [%]	cell viability [24] [%]	cell viability [25] [%]	cell viability [26] [%]	cell viability [27] [%]	cell viability [28] [%]	cell viability [29] [%]	cell viability [30] [%]	cell viability [31] [%]	cell viability [32] [%]	cell viability [33] [%]
COc1cc2ncnc(Nc3cc(Br)c(O)c(Br)c3)c2cc1OC	80	90.5	97.8	98.4	109	101	113	109	104	106	78	112	107	118	121	125	101	131	124	108	102	85.6	82.8	99.2	110	97.8	113	99.7	103	108	98.5	89.1	61.6
CNC[C@H](O)c1ccc(O)c(O)c1	90.5	85.8	71.9	73.9	77.3	17.6	63	68.7	61.3	70.5	53.1	104	97.3	85.6	73.1	102	30.8	87.9	83.7	79.8	90.7	82.4	104	111	85.8	83.3	93.3	28.2	86.5	95.3	89.5	82.1	68.9
O=C(O)C1=NC(C(=O)O)CC(/C=C/N2c3cc(O)c(OC4OC(CO)C(O)C(O)C4O)cc3CC2C(=O)O)=C1 (centres undefined)	109	106	110	109	101	113	112	104	103	95.9	103	102	107	101	113	101	111	115	102	102	101	97.2	112	113	102	118	108	112	105	96.4	111	105	96.9
